Assays:
Conditions in all cases: for Kd: ARS displacement, 0.1M phosphate buffer, pH 7.4, 25° C.
[1] = Alizarin Red S (ARS) displacement assay, binding to fructose
Method: (§1) The association constant for the binding event between Alizarin Red S (ARS) and the compounds of each of examples 1-24 was determined using standard methods in the art. Triplicate titrations of 10^-5 M ARS in 0.1M phosphate buffer, pH 7.4, were performed in a 96-well plate against serial dilutions of example compounds, ranging in concentration from 0-0.1M at 25° C. The example compound-ARS solution was incubated for 5-45 minutes at 25° C., and absorbance intensity was measured using excitation wavelength 468 nm and emission wavelength 585 nm. Changes in intensity were plotted against the concentration of the example compound, and the intensity data was fitted to yield an association constant for ARS binding.
(§2) The association constant for the binding between a target sugar compound (e.g., glucose) and a boronate compound was determined via the displacement of ARS bound to the example compounds. Triplicate wells of 10^-5 M ARS and 0.1M example compounds in 0.1M phosphate buffer, pH 7.4, were titrated in a 96-well plate against serial dilutions of the target sugar compound, ranging in concentration from 0-2.0 M at 25° C. The boronate-ARS-carbohydrate solution was incubated for 30-60 minutes at 25° C. and the intensity of each well was measured in a plate reader at excitation wavelength 468 nm and emission wavelength 585 nm. Changes in intensity were plotted against concentration of the target sugar compound, and the data was fitted to a one-site competition equation:
(§3) [formula] to yield an association constant for the boronate compound-target sugar compound binding event.

[2] = Alizarin Red S (ARS) displacement assay, binding to glucose
Method: as §1, §2, §3

[3] = Alizarin Red S (ARS) displacement assay, binding to lactate
Method: as §1, §2, §3

[4] = Example 7 (heterobifunctional, boroxole) compared to Example 5

Row | SMILES | Kd [1] [mM] | Kd [2] [mM] | Kd [3] [mM] | increase in affinity to fructose [1, 4] [fold] | increase in affinity to lactate [3, 4] [fold] | increase in affinity to glucose [2, 4] [fold]
1 | NC(=O)[C@H](CNC(=O)c1sccc1B(O)O)NC(=O)c1sccc1B(O)O [Example 8, (S)-(2-((1-amino-3-(3-boronothiophene-2-carboxamido)-1-oxopropan-2-yl)carbamoyl)thiophen-3-yl)boronic acid] | 2.2 | 32 | – | – | – | –
2 | NC(=O)[C@H](CNC(=O)c1cc2c(c(C(F)(F)F)c1)COB2O)NC(=O)c1cc(B(O)O)cc([N+](=O)[O-])c1 [Example 6, (S)-(3-((1-amino-3-(1-hydroxy-4-(trifluoromethyl)-1,3-dihydrobenzo[c][1,2]oxaborole-6-carboxamido)-1-oxopropan-2-yl)carbamoyl)-5-nitrophenyl)boronic acid] | 4.6 | 3.4 | 74.1 | – | – | –
3 | O=C(O)CN(CCCCNC(=O)c1cc(B(O)O)cc([N+](=O)[O-])c1)C(=O)c1cc(B(O)O)cc([N+](=O)[O-])c1 [Example 10, N-(4-(3-borono-5-nitrobenzamido)butyl)-N-(3-borono-5-nitrobenzoyl)glycine] | 11.5 | 99.8 | – | – | – | –
4 | O=C(O)CN(CCCCCNC(=O)c1ccc(B(O)O)c(F)c1)C(=O)c1ccc(B(O)O)c(F)c1 [Example 20, N-(S-(4-borono-3-fluorobenzamido)pentyl)-N-(4-borono-3-fluorobenzoyl)glycine] | 5.86 | 30.4 | 70.3 | – | – | –
5 | O=C(O)CN(Cc1cccc(CNC(=O)c2ccc(B(O)O)c(F)c2)c1)C(=O)c1ccc(B(O)O)c(F)c1 [Example 22, N-(3-((4-borono-3-fluorobenzamido)methyl)benzyl)-N-(4-borono-3-fluorobenzoyl)glycine] | 9.52 | 16.1 | 97.3 | – | – | –
6 | O=C(O)CN(Cc1cccc(CNC(=O)c2ccc(F)c(B(O)O)c2)c1)C(=O)c1ccc(F)c(B(O)O)c1 [Example 17, N-(3-((3-borono-4-fluorobenzamido)methyl)benzyl)-N-(3-borono-4-fluorobenzoyl)glycine] | 6.5 | 88.6 | 53.5 | – | – | –
7 | O=C(O)CN(CCCNC(=O)c1ccc(B(O)O)c(F)c1)C(=O)c1ccc(B(O)O)c(F)c1 [Example 19, N-(3-(4-borono-3-fluorobenzamido)propyl)-N-(4-borono-3-fluorobenzoyl)glycine] | 2.87 | 43 | 31 | – | – | –
8 | NC(=O)[C@H](CNC(=O)c1ccc2c(c1)B(O)OC2)NC(=O)c1cc(B(O)O)cc([N+](=O)[O-])c1 [Example 4, (S)-(3-((1-amino-3-(1-hydroxy-1,3-dihydrobenzo[c][1,2]oxaborole-6-carboxamido)-1-oxopropan-2-yl)carbamoyl)-5-nitrophenyl)boronic acid] | 5.6 | 13 | – | – | – | –
9 | O=C(O)CN(CCCCCNC(=O)c1cc(B(O)O)cc([N+](=O)[O-])c1)C(=O)c1cc(B(O)O)cc([N+](=O)[O-])c1 [Example 11, N-(5-(3-borono-5-nitrobenzamido)pentyl)-N-(3-borono-5-nitrobenzoyl)glycine] | 24.7 | – | – | – | – | –
10 | O=C(O)CNC(=O)[C@@H]1C[C@H](NC(=O)c2ccc3c(c2)B(O)OC3)CN1C(=O)c1cc(B(O)O)ccc1[N+](=O)[O-] [Example 3, ((2S,4S)-1-(5-borono-2-nitrobenzoyl)-4-(1-hydroxy-1,3-dihydrobenzo[c][1,2]oxaborole-6-carboxamido)pyrrolidine-2-carbonyl)glycine] | 1.9 | 14 | 48 | – | – | –
11 | NC(=O)CN(C(=O)c1ccc2c(c1)B(O)OC2)[C@@H]1CCCC[C@H]1NC(=O)c1ccc2c(c1)B(O)OC2 [Example 14, N-(2-amino-2-oxoethyl)-1-hydroxy-N-((1R,2R)-2-(1-hydroxy-1,3-dihydrobenzo[c][1,2]oxaborole-6-carboxamido)cyclohexyl)-1,3-dihydrobenzo[c][1,2]oxaborole-6-carboxamide] | 5.88 | 1.64 | 59.8 | – | – | –
12 | O=C(O)CN(Cc1ccc(CNC(=O)c2cc(B(O)O)cc([N+](=O)[O-])c2)cc1)C(=O)c1cc(B(O)O)cc([N+](=O)[O-])c1 [Example 12, N-(4-((3-borono-5-nitrobenzamido)methyl)benzyl)-N-(3-borono-5-nitrobenzoyl)glycine] | 12.1 | – | – | – | – | –
13 | O=C(O)CN(Cc1ccc(CNC(=O)c2ccc(B(O)O)c(F)c2)cc1)C(=O)c1ccc(B(O)O)c(F)c1 [Example 21, N-(4-((4-borono-3-fluorobenzamido)methyl)benzyl)-N-(4-borono-3-fluorobenzoyl)glycine] | 13.5 | – | – | – | – | –
14 | O=C(O)CN(CCCNC(=O)c1ccc(F)c(B(O)O)c1)C(=O)c1ccc(F)c(B(O)O)c1 [Example 15, N-(3-(3-borono-4-fluorobenzamido)propyl)-N-(3-borono-4-fluorobenzoyl)glycine] | 4.8 | 59 | 51.6 | – | – | –
15 | O=C(O)CN(Cc1cccc(CNC(=O)c2cc(B(O)O)cc([N+](=O)[O-])c2)c1)C(=O)c1cc(B(O)O)cc([N+](=O)[O-])c1 [Example 13, N-(3-((3-borono-5-nitrobenzamido)methyl)benzyl)-N-(3-borono-5-nitrobenzoyl)glycine] | 17.8 | – | – | – | – | –
16 | CS(=O)(=O)c1ccc(B(O)O)cc1C(=O)N[C@@H]1C[C@H](C(N)=O)N(C(=O)c2cc(B(O)O)ccc2S(C)(=O)=O)C1 [Example 1, (3-((2R,4R)-4-(5-borono-2-(methylsulfonyl)benzamido)-2-carbamoylpyrrolidine-1-carbonyl)-4-(methylsulfonyl)phenyl)boronic acid] | 1.7 | 25.2 | 38.3 | – | – | –
17 | NC(=O)[C@H](CNC(=O)c1cc(B(O)O)ccc1[N+](=O)[O-])NC(=O)c1cc(B(O)O)ccc1[N+](=O)[O-] [Example 5, (S)-(3-((1-amino-3-(5-borono-2-nitrobenzamido)-1-oxopropan-2-yl)carbamoyl)-4-nitrophenyl)boronic acid] | 11 | 29.4 | – | – | – | –
18 | O=C(O)CN(CCCNC(=O)c1cc(B(O)O)cc([N+](=O)[O-])c1)C(=O)c1cc(B(O)O)cc([N+](=O)[O-])c1 [Example 9, N-(3-(3-borono-5-nitrobenzamido)propyl)-N-(3-borono-5-nitrobenzoyl)glycine] | 10.6 | 6.5 | – | – | – | –
19 | O=C(O)CN(C(=O)c1ccc(F)c(B(O)O)c1)[C@H]1CCCC[C@H]1NC(=O)c1ccc(F)c(B(O)O)c1 [Example 18, N-((1S,2R)-2-(3-borono-4-fluorobenzamido)cyclohexyl)-N-(3-borono-4-fluorobenzoyl)glycine] | 6.04 | 95.4 | 67.5 | – | – | –
20 | NC(=O)[C@H](CNC(=O)c1ccc2c(c1)B(O)OC2)NC(=O)c1cc(B(O)O)ccc1[N+](=O)[O-] [Example 7, (S)-(3-((1-amino-3-(J-hydroxy-1,3-dihydrobenzo[c][1,2]oxaborole-6-carboxamido)-1-oxopropan-2-yl)carbamoyl)-4-nitrophenyl)boronic acid] | 1.2 | 4.4 | 39.5 | ~7 | ~7 | ~7
21 | O=C(O)CN(Cc1cccc(CNC(=O)c2cc(Br)cc(B(O)O)c2)c1)C(=O)c1cc(Br)cc(B(O)O)c1 [Example 24, N-(3-((3-borono-5-bromobenzamido)methyl)benzyl)-N-(3-borono-5-bromobenzoyl)glycine] | 9.36 | 93.7 | – | – | – | –
22 | O=C(O)CNC(=O)[C@@H]1C[C@H](NC(=O)c2ccc3c(c2)B(O)OC3)CN1C(=O)c1ccc2c(c1)B(O)OC2 [Example 2, ((2S,4S)-1-(1-hydroxy-1,3-dihydrobenzo[c][1,2]oxaborole-6-carbonyl)-4-(1-hydroxy-1,3-dihydrobenzo[c][1,2]oxaborole-6-carboxamido)pyrrolidine-2-carbonyl)glycine] | 2 | 3.7 | 58 | – | – | –
